Here are results for two compounds from patent US8937048B2, “Anti-angiogenic compounds” (Covx Technologies Ireland, Limited, priority 2008, dated 2015).

In data set [1] the target is T1, human angiopoietin-2 protein (Homo sapiens, UniProt O15123).
T1 construct: purchased R&D Systems
T1 sequence (O15123 19-496): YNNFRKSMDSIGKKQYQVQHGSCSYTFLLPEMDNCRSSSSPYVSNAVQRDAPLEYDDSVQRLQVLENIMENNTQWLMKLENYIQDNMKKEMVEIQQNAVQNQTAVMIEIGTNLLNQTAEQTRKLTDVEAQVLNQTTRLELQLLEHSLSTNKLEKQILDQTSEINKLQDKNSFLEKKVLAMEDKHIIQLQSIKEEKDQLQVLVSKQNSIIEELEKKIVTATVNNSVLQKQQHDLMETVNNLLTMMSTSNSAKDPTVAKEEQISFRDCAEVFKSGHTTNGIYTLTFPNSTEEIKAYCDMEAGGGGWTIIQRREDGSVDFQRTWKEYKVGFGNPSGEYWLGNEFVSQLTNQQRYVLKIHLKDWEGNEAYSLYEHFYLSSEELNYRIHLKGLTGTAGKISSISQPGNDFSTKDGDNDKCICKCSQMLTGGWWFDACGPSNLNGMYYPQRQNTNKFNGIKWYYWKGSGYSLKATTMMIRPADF
As to the kind of experiment: Ang2 competitive ELISA (Ang-2 coated, Tie-2-Fc competition). The data set is classed as binding. How it is done: The ability of Ang2 binding compounds to interact with Ang2 was measured by competition with Tie-2. These tests were described in US2008166364 (and also in PCT/IE2007/000110), whose contents are herein incorporated by reference in their entirety. In particular, those portions of PCT/IE2007/000110 and US2008166364 detailing the advantages and disadvantages of various Ang2-binding peptides, and the advantages and disadvantages of covalently linking certain Ang2-binding peptides to catalytic antibodies (and those portions specifically relating to linking to h38C2), as well as the advantages and disadvantages of using specific residues of the respective Ang2-specific peptide as the linking residue (in this context, linking residue meaning the residue covalently linked to the linker (for example as used herein in Example 4)). For competitive ELISA, human angiopoietin-2 protein and Tie-2-Fc (R&D Systems) were reconstituted without carrier protein. Mouse anti-human Tie-2 (Pharmingen) was used as the primary antibody and goat anti-mouse-IgG 1-HRP (Pierce) was used as the secondary antibody. TMB substrate from Pierce was used.
High-binding half-well plates were coated with Ang-2 (100 ng/well) in 50 W PBS and incubated at 4° C. overnight. […] Color development was monitored and stopped with 25 μl of 2 M H2SO4. OD450 nm with a correction wavelength of 540 nm was measured.

The target in data set [2] is T1, human angiopoietin-2 protein. As to the kind of experiment: Ang2 reverse competition ELISA (Tie-2-Fc coated). The data set is classed as binding. The following applies: Table 5, column T; read-out: Ang-2 T IC50. How it is done: Plates were washed three times with washing buffer (0.1% Tween 20, PBS, pH 7.4) and blocked with Superblock, 150 μl/well at RT for 1 hour. Plates were washed three times. […] Plates were washed 3 times, and 50 W of streptavidin HRP (1:200 dilution in Superblock) was added at RT for 20 minutes. […] OD450 nm with a correction wavelength of 540 nm was measured.

A short description of data set [3]: Mouse half-life (T 1/2) and screening half-life of Ang2 binding compounds. The class given is in vivo, Swiss Webster mice. How it is done:
For “screening” T ½, test compounds were intravenously administered into male Swiss Webster mice. Blood samples were taken from 4 mice per time point via retroorbital sinus bleed at the following time points: 0.08, 5, and 32 hours. Blood level of test compounds were determined by ELISA. The data were reported as the percentage of test compounds at 32 hours versus 5 min. Normal T ½ was calculated in a similar fashion, after undergoing additional data analysis using WinNonlin version 4.1 (Pharsight Corporation). The data was fit to a model based upon the shape of the curve (i.e. a bi-exponential decline will be fit to a two compartment model, etc.) The criteria for best fit (i.e. lowest % CV) was based on iterative re-weighted least squares.

With `CSCC[C@H](NC(=O)[C@H](Cc1ccccc1)NC(=O)[C@H](CCC(N)=O)NC(=O)[C@H](CC(=O)O)NC(=O)[C@H](Cc1ccc(O)cc1)NC(=O)[C@H](CC(C)C)NC(=O)[C@@H](NC(=O)[C@H](CCCCN)NC(=O)[C@H](CC(=O)O)NC(=O)[C@H](CC(C)C)NC(=O)[C@H](CCC(=O)O)NC(=O)[C@H](CC(=O)O)NC(=O)[C@H](CC(C)C)NC(=O)[C@@H]1CCCN1C(=O)[C@H](CCC(N)=O)NC(=O)[C@H](Cc1ccc(O)cc1)NC(=O)[C@H](CCCCN)NC(=O)[C@H](CCC(N)=O)NC(C)=O)[C@@H](C)O)C(=O)N[C@@H](CC(C)C)C(=O)N[C@@H](CCC(N)=O)C(=O)N[C@@H](CCC(N)=O)C(=O)NCC(N)=O` [Compound 4021], the IC50 in data set [1] (Table 6, column P) was 36.4 nM.

Regarding “Q(Kac)Y QPL DEL DK(4P)T LYD QFM LQQ G [Compound 4024]”, the IC50 in data set [2] was 207 nM; in data set [1] (Table 5, column P), 17.4 nM. The “T ½ hours” value in data set [3] (Table 5, half-life (value not in parentheses)) turned out to be 104 h. For the same compound, the “T ½ (Sc) hours, screening half life” value in data set [3] (Table 5, screening half life (in parentheses), shorter test period) is “(27) hours”.

A word on the IC50: it is the concentration needed to halve the response being measured.
